Data taken from ChEMBL document CHEMBL5724558, “Image-based profiling of drug vulnerabilities in CRC organoids” (2024).
“And” between values parts separate entries of the source, which are not always exact repeats. Equal entries are not always repeated.

Legend:
Assay type in all cases: functional, Homo sapiens
Set-up in all cases: dose or concentration left out as unconfirmed
[1] = tested on: Colon cancer organoid; test: (§1) Image-based profiling of donated chemical probes and chemogenomic kinase set in O09 CRC organoid. Image analysis is performed on the sum area metric, and the data were normalized to the DMSO control. After imaging the organoid viability is measured using the OneGloEX Luciferase Assay System. The normalized viability data and sum area are reported.
[2] = tested on: Colon cancer organoid; test: as §1, with “O06” for “O09”
[3] = tested on: Colon cancer organoid; test: as §1, with “O21” for “O09”

Row | SMILES | Cell Viability ([1]; Replication number 1) | Cell Viability ([1]; Replication number 2) | Cell Viability ([2]; Replication number 1) | Cell Viability ([2]; Replication number 2) | Cell Viability ([3]; Replication number 1) | Cell Viability ([3]; Replication number 2)
1 | COc1cc(N2CCC(O)CC2)ccc1Nc1cc(Nc2ccccc2S(=O)(=O)C(C)C)c2cc[nH]c2n1 | 95.9238% and 77.0453% | 69.9407% and 56.4198% | 110.737% and 120.851% | 95.8479% and 104.062% | 85.5887% and 104.808% | 115.828% and 93.8467%
2 | COc1cc(Nc2nccc(-c3cnn4nc(OC)ccc34)n2)cc(C(F)(F)F)c1 | 18.7716% and 22.0247% | 18.9351% and 21.2081% | 24.0396% and 55.0969% | 25.0029% and 51.7745% | 43.8285% and 81.0407% | 69.763% and 98.0422%
3 | C[C@@H]1CCNC(=O)c2cc3ccc(C(=O)Nc4nc5ccccc5n4CCCN(C)C)cc3n21 | 82.052% and 59.5917% | 80.614% and 53.9902% | 118.285% and 99.4853% | 110.228% and 88.2262% | 69.4409% and 79.1638% | 71.3371% and 86.362%
4 | COc1cc2c(cc1-c1c(C)noc1C)ncc1[nH]c(=O)n([C@H](C)c3ccccn3)c12 | 51.0073% and 39.6445% | 53.9016% and 48.1786% | 37.8038% and 58.2282% | 43.3272% and 66.9145% | 88.6726% and 67.015% | 110.558% and 99.8807%
5 | COc1cc(C)c(Sc2cnc(NC(=O)c3ccc(CNC(C)C(C)(C)C)cc3)s2)cc1C(=O)N1CCN(C(C)=O)CC1 (stereo not drawn) | 101.639% and 97.9897% | 78.5606% and 100.962% | 76.6912% and 109.056% | 80.9572% and 86.581% | 74.3447% and 68.0139% | 84.4374% and 89.8165%
6 | O=C(Nc1cccnc1)c1cc(-c2ccnc(F)c2)ccc1OCc1ccccc1 | 214.708% and 117.189% | 126.13% and 109.87% | 114.96% and 114.62% | 124.178% and 97.892% | 112.865% and 104.808% | 105.956% and 96.1497%
7 | CNc1nc(Nc2cnn([C@H]3CCN(C4COC4)C[C@@H]3F)c2Cl)ncc1C(F)(F)F | 95.686% and 93.751% | 102.903% and 81.5252% | 126.64% and 127.973% | 90.3478% and 106.324% | 107.524% and 121.533% | 104.61% and 94.4225%
8 | COc1cc(-c2cn([C@H]3CCc4c(F)cccc4N(CC(F)(F)F)C3=O)nn2)ccc1-n1cnc(C)c1 | 81.2479% and 97.2392% | 40.0152% and 77.6926% | 98.6748% and 98.829% | 105.811% and 104.708% | 110.846% and 137.969% | 98.2534% and 104.592%
9 | CC(C)(O)CNc1ncc(-c2ccnc(Nc3ccnc(Cl)c3)n2)c(CC2CC2)n1 | 50.3707% and 42.8861% | 72.1392% and 56.6897% | 43.9028% and 71.665% | 60.8585% and 108.175% | 40.3035% and 73.5889% | 46.8315% and 88.665%
10 | CCOc1cc(N2CCC(O)CC2)ccc1Nc1ncc2c(n1)N(C1CCCC1)CCC(=O)N2C | 71.8666% and 49.1195% | 54.8924% and 49.401% | 54.2917% and 71.4425% | 45.2272% and 91.5167% | 101.764% and 118.746% | 133.409% and 125.513%
11 | CCc1cc2cc(NS(=O)(=O)c3ccc(C#N)cc3)ccc2n(CC)c1=O | 136.869% and 118.47% | 168.563% and 119.449% | 145.787% and 148.591% | 141.244% and 141.715% | 101.899% and 123.449% | 90.9641% and 104.714%
12 | O=C(Nc1ccc(-c2ccnc(Nc3ccc(N4CCOCC4)cc3)n2)cc1)[C@@H]1CCCN1 | 74.06% and 64.3291% | 67.524% and 79.6356% | 113.887% and 133.092% | 82.4971% and 82.4679% | 122.386% and 130.453% | 118.022% and 143.361%
13 | CCC(=O)Nc1cccc(Oc2nc(Nc3ccc(N4CCN(C)CC4)cc3OC)ncc2Cl)c1 | 45.1468% and 48.3715% | 57.9255% and 59.3892% | 127.075% and 113.507% | 91.2646% and 89.6658% | 76.6045% and 88.0836% | 80.6193% and 93.271%
